What was measured:
[1] = system: V79-4 (Chinese Hamster Lung fibroblast) cells; assay: Flow cytometry measurement of delivery of IdU labeled ACes with transfection agents; type: cell-based; conditions: percentage of transfected cells containing IdU labeled ACes, 1×10^6 ACes complexed with agent, agent dose in microliters per Table 2
Procedure: All compounds were tested in a Chinese Hamster lung fibroblast line (V79-4, ATCC number CCL-39). Approximately 17 hours (2 cell doublings) prior to transfection, exponentially growing cells were trypsinized and plated at 250,000 cells per well into a 6 well petri dish with Dulbecco's Modified Eagle Medium (Life Technologies, Burlington, ON) and supplemented with 10% FBS (Can Sera, Rexdale ON)). At the time of transfection, the number of cells per well was estimated to be approximately 1 million. For transfection, each individual manufacturer's protocol for complexing to naked DNA was followed, with the exception that the amount of transfection agent used was varied, to reflect the different amount and type of DNA present, as well as the different ionic strength of the complexing. […]
The percentage of transfected cells containing IdUrd-labeled ACes was determined using flow cytometry and collecting FITC fluorescence. Data were accumulated to form bivariate channel distribution showing forward scatter versus green fluorescence (IdUrd-FITC). The fluorescence level at which cells were determined to be positive was established by visual inspection of the histogram of negative control cells such that the gate for the negative cells was set such that 1% appeared in the positive region. […]

CHO-KI cells = assay: Ultrasound mediated transfection of CHO-KI cells with GFP chromosomes; type: cell-based
Procedure: Vesicles were prepared at a lipid concentration of 700 nmol/ml lipid (cationic lipid/DOPE 1:1) as follows. In a glass tube (10 ml) 350 nmol cationic lipid (SAINT-2) was mixed with 350 nmol dioleoylphosphatidylethanolamine (DOPE), both solubilized in an organic solvent (Chloroform, Methanol or Chloroform/Methanol 1:1, v/v). Dioleoylphosphatidylethanolamine (DOPE; Avanti Polar Lipids, Alabaster, Ala.) forms inverse hexagonal phases in a membrane and weakens the membrane. Other effectors that may be used are cis-unsaturated phosphatidylethanolamines, cis-unsaturated fatty acids, and cholesterol.
The solvent was evaporated under a stream of nitrogen (15 min/ 250 μl solvent at room temperature). The remaining solvent was removed totally by drying the lipid for 15 min in a desiccator under high vacuum from a vacuum pump. To the dried mixture was added 1 ml ultrapure water. This was vortexed vigorously for about […]. The resulting solution was sonicated in an ultrasonication bath (Laboratory Supplies Inc. NY) until a clear solution was obtained. The resulting suspension contained a population of unilamellar vesicles with a size distribution between 50 to 100 nm.
CHO-KI cells were grown at 37°, 5% CO2, in CHO-S-SFM 2 Medium, (Gibco BRL, Paisley, UK). Between 2×10^5 and 5×10^5 cells were plated onto sterile glass slides in a 12 well plate 24 h before usage.
(§1) Transfection of the cells was performed as follows. The medium was removed from the cells, and the cells were washed twice with HBSS (Hanks balanced salt solution without Phenol Red (Gibco BRL, UK)) at 37° C. Then 500 μl HBSS at 37° C. was added per well, followed by 10 μl of the freshly prepared vesicle solution (prepared in Example 2) to yield a final concentration of 23.3 nmol/ml.
(§2) Alternatively, the medium was removed from the cells, and the cells were washed twice with HBSS. 500 μl HBSS/lipid solution at 37° C. was added to each well. The HBSS/lipid solution was prepared by adding 1 μl ethanolic lipid solution (prepared as described above) to 500 μl HBSS under vigorous vortexing. The plates were then sealed with parafilm tape and shaken gently at room temperature for 30 min. After incubation, ultrasound was applied at an output energy of 0.5 Watt/cm^2 for 60 sec through the bottom of the plate to the cells. The ultrasound was mediated by an ultrasound gel (Aquasonic 100, Parker, N.J.) between transducer and plate. The ultrasound was applied with an ImaRx Sonoporator 100. Immediately after applying ultrasound one GFP chromosome per seeded cell (2×10^5-5×10^5) (prepared in Example 1) was added. The plate was then sealed again and shaken gently for 1 h at room temperature. […]

A9 cells = assay: Ultrasound mediated transfection of A9 cells with GFP chromosomes; type: cell-based, murine
Procedure: as §1, §2

Hep-G2 cells = assay: Ultrasound mediated transfection of Hep-G2 cells with GFP chromosomes; type: cell-based
Procedure: as §1, §2

[2] = Saint-2/DOPE 1:1, ultrasound 0.5 Watt/cm^2 for 60 sec

Row | Compound | DELIVERY % IdU positive (24 hours) [1] [%] | cells remained on the glass slide after transfection (CHO-KI cells; Saint-2/DOPE 1:1, ultrasound 0.5 Watt/cm^2 for 60 sec, visual inspection) [%] | GFP positive cells, of original population (CHO-KI cells; after 48 hours) [%] | remaining cells positive for green fluorescent protein expression (CHO-KI cells; after 48 hours, of the cells remaining on the slide) [%] | cells containing an intact artificial chromosome (FISH) (CHO-KI cells; after culturing for two weeks) [%] | cells remained on the glass after transfection (A9 cells; [2]) [%] | remaining cells positive for green fluorescent protein expression (A9 cells; of the cells remaining on the glass) [%] | cells remained on the glass slide after transfection (Hep-G2 cells; [2]) [%] | remaining cells positive for green fluorescent protein expression (Hep-G2 cells; of the cells remaining on the slide) [%]
1 | CCCCCCCCCCCCCCN=C(CCNCCCCCCCCCCCCCC)NC(C)(C)C [CLONFECTIN, N-t-butyl-N′-tetradecyl-3-tetradecyl-aminopropionamidine] | 0.61 |  |  |  |  |  |  |  | 
2 | CCCCCCCCC=CCCCCCCCCC(CCCCCCCCC=CCCCCCCCC)c1cc[n+](C)cc1.[Cl-] (stereo not drawn) [Saint-2, 1-methyl-4-(1-octadec-9-enyl-nonadec-10-enylenyl) pyridinium chloride] |  | 30 | 3 | 10 | 1.4 | 30 | 50 | 30 | 80

Source: patent US6936469B2, “Methods for delivering nucleic acid molecules into cells and assessment thereof” (Chromos Molecular Systems Inc., priority 2001, dated 2005)
